From ChEMBL document CHEMBL1955717, “Synthesis and in vitro study of novel neuraminidase inhibitors against avian influenza virus” (Bioorg Med Chem, 2012)

Columns and labels:
Neuraminidase [1] = molecular target: T1, Neuraminidase (Influenza A virus, UniProt B4URF0); parameters: species or system H7N3
Neuraminidase [2] = molecular target: T1, Neuraminidase; parameters: species or system H7N1

T1 sequence (B4URF0 whole entry): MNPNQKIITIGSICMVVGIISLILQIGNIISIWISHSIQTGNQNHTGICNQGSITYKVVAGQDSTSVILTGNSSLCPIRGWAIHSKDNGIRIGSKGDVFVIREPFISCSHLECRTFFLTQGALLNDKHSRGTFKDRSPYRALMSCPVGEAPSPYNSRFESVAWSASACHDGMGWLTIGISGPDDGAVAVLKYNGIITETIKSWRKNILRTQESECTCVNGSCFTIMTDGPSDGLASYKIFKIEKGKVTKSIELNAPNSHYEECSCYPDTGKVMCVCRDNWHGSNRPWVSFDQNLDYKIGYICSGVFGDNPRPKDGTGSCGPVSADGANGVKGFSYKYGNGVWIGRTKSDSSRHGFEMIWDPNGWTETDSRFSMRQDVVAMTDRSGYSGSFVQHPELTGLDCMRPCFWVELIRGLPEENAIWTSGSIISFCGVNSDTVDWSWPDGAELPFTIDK

| SMILES | IC50 (Neuraminidase [1]) [nM] | IC50 (Neuraminidase [2]) [nM] |
| --- | --- | --- |
| C/C=C/C(=O)N[C@@H]1[C@@H](N=[N+]=[N-])CC(C(=O)O)=C[C@H]1OC(CC)CC | 99300 | 51600 |
| CCC(CC)O[C@@H]1C=C(C(=O)O)C[C@H](N=[N+]=[N-])[C@H]1NC(C)=O | 2.2 | 84.4 |
| C/C=C/C(=O)N[C@@H]1[C@@H](N)CC(C(=O)O)=C[C@H]1OC(CC)CC | 4510 | 139000 |
| C=CC(=O)N[C@@H]1[C@@H](N)CC(C(=O)O)=C[C@H]1OC(CC)CC | 0.1 | 31.8 |
| C=CC(=O)N[C@@H]1[C@@H](NCC(C)C)CC(C(=O)O)=C[C@H]1OC(CC)CC | 28.1 | 14.6 |
